Data: patent US20110123510A1, “Methods of Affecting Biological Function Through Circadian Clock Feedback Cycle by NAMPT-Mediated NAD+ Biosynthesis” (WASHINGTON UNIVERSITY, priority 2009, published 2011)

What was measured:
[1] = system: CLOCK:BMAL1-driven transcription of Per2:luciferase; experiment: Per2:luciferase transcriptional reporter assay in HEK293 cells; type: cell-based
Experimental: Luciferase Assays. HEK293 and HepG2 cells were transiently transfected with Clock (100 ng), Bmal1 (100 ng), firefly luciferase reporter (100 ng), and renilla luciferase reporter (control for transfection efficiency) (4 ng) using Lipofectamine 2000. Increasing doses of Sirt1 (200-800 ng), resveratrol (20, 50, 100 uM), nicotinamide (1, 5, 10 mM), Ex-527 (0.1 or 1.0 uM), or FK866 (10 nM) were added as indicated. 48 hrs following transfection, cells were lysed and luciferase activity monitored using the Dual-Luciferase® Reporter Assay System (Promega). Firefly luciferase values were normalized to renilla luciferase values, and a minimum of 3 independent experiments was performed in triplicate for each assay.

SIRT1 target genes = experiment: mRNA expression of SIRT1 target genes in primary hepatocytes (quantitative real-time PCR); type: cell-based, mice; details: 200 nM FK866 for 24 hours (FIG. 2B)
Experimental: (§1) Quantitative Real-Time PCR. Total RNA was extracted from frozen tissue with Tri Reagent (Molecular Research Center, Inc.). cDNA was synthesized using the High Capacity cDNA Reverse Transcription kit (Applied Biosystems). Real-time PCR was performed and analyzed using an Applied Biosystems 7900HT Fast Real-Time PCR System (Applied Biosystems). PCR conditions were: 10 min at 95° C., then 35 cycles of 10 s at 95° C., 15 s at 60° C. Relative expression levels (normalized to Gapdh) were determined using the comparative CT method.
(§2) Primary Hepatocyte Isolation and Adenoviral Infection.

Per2 RNA oscillation = Per2 RNA oscillation in primary hepatocytes following serum shock; type: cell-based, mice; details: primary hepatocytes after serum shock, 200 nM FK866 added at t=2 (FIG. 3B); vehicle 2.2 day
Experimental: as §1, §2
Synchronization of Primary Hepatocytes by Serum Shock. Hepatocytes were synchronized by changing to media containing 50% horse serum (t=0) for 2 hrs and then maintaining cells in media containing 0.5% FBS (A. Balsalobre, F. Damiola, U. Schibler, Cell 93, 929 (1998)). For FK866 application, 200 nM FK866 was added to the culture at t=2. RNA samples were collected at the indicated time points, and the expression of clock genes was examined by quantitative real-time PCR as described above. Damping rate was assessed as the decay rate of the oscillations of averaged Per2 RNA abundance assuming exponential decay.

[2] = system: NAMPT-mediated NAD+ biosynthesis; details: primary hepatocytes, 200 nM FK866 for 24 hours (FIG. 2A)
Experimental: NAD^+Measurements. NAD^+ levels were measured using HPLC with Waters 515 pumps and a 2487 detector with a Supelco LC-18-T column (15 cm×4.6 cm). Briefly, frozen liver tissues or cultured cells were extracted in 1M perchloric acid and neutralized in 3M K2CO3 on ice. After centrifugation, the supernatant was mixed with Buffer A (50 mM K2PO4/KHPO4, pH 7.0) and loaded on to the column. The HPLC was run at a flow rate of 1 ml/min with 100% Buffer A from 0-5 min, a linear gradient to 95% Buffer N5% Buffer B (100% methanol) from 5-6 min, 95% Buffer N5% Buffer B from 6-11 min, a linear gradient to 85% Buffer N15% Buffer B from 11-13 min, 85% Buffer A/15% Buffer B from 13-23 min, and a linear gradient to 100% Buffer A from 23-24 min. NAD^+ eluted as a sharp peak at 15 min and was quantitated based on the peak area compared to a standard curve and normalized to tissue weight of frozen liver tissues or to protein content of cultured cells.

NC(=O)C1CCCc2c1[nH]c1ccc(Cl)cc21 (stereo not drawn) [EX-527]
Per2:luciferase transcription ([1]; Ex-527 0.1 and 1.0 uM (FIG. 6C)): showed a similar trend

O=C(/C=C/c1cccnc1)NCCCCC1CCN(C(=O)c2ccccc2)CC1 [FK866]
reduction in mRNA expression level of G6 Pase (SIRT1 target genes): ~30%
reduction in mRNA expression level of Pepck (SIRT1 target genes): ~30%
CLOCK:BMAL1-driven transcription of the Per2:luciferase reporter ([1]; HEK293 cells, 10 nM FK866 for 24 or 48 hours (FIG. 2C)): significant increase
SIRT1-dependent suppression of CLOCK:BMAL1-mediated transcription ([1]; Sirt1 (800 ng) and 10 nM FK866 for 48 hours (FIG. 2E)): abrogated
damping rate of Per2 oscillation (Per2 RNA oscillation): 5.3 days
NAD+ biosynthesis (NAD+ levels) [2]: significantly inhibited

NC(=O)c1cccnc1 [nicotinamide, 3-pyridinecarboxamide]
Per2:luciferase transcription ([1]; increasing doses of nicotinamide 1, 5 and 10 mM (FIG. 6B)): activated

Oc1ccc(C=Cc2cc(O)cc(O)c2)cc1 [resveratrol]
Per2:luciferase transcription ([1]; increasing doses of resveratrol 20, 50 and 100 uM (FIG. 6A)): inhibited
